Consider two molecules from ChEMBL document CHEMBL3425453, “Luciferin and derivatives as a DYRK selective scaffold for the design of protein kinase inhibitors” (Eur J Med Chem, 2015).

SMILES strings stand for the structures.

This assay deals with Cyclin-dependent kinase 2 (Homo sapiens) (UniProt P24941).

As for `O=C(O)[C@H]1CSC(c2ccc3cc(O)ccc3n2)=N1`, the Tm came to 43.4 °C. With `O=C(O)[C@H]1CSC(c2ccc3cccc(O)c3n2)=N1` the figure was 43.9 °C.
